According to article PMC12079163 (Drug Development Research, 2025):
Values joined by “and” are separate entries in the source; they are usually repeats but may differ in a detail not shown here. Identical values can stand only once. Like-named read-outs stand apart in the source and are kept apart here. Values belong to the compound of their own block, whether it stands above or below them.

Columns and labels:
HDAC1 = molecular target: T1, HDAC1 (Homo sapiens, UniProt Q13547); assay: HDAC1 fluorogenic assay (BPS Bioscience 50061, run by Nanosyn); type: biochemical; conditions: cell‐free fluorogenic assay, duplicate, errors are SEMs
T1 construct: purchased BPS Bioscience (assay run by Nanosyn) 50061
T1 sequence (Q13547 whole entry): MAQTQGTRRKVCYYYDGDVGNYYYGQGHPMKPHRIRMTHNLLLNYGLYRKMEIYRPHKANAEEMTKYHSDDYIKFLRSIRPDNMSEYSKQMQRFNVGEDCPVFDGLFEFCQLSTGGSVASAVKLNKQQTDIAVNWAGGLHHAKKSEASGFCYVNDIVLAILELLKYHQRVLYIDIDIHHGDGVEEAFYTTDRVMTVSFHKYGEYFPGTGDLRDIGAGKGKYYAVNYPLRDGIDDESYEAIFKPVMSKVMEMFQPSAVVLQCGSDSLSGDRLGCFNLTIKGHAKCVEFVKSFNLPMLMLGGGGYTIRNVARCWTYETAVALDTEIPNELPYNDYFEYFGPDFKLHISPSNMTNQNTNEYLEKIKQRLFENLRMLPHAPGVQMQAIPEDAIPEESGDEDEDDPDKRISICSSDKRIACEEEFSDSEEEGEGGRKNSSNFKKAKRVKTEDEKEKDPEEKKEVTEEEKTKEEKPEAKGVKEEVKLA

BCL‐2 = molecular target: T2, BCL‐2 (Homo sapiens, UniProt P10415); assay: BCL‐2 TR‐FRET assay (BPS Bioscience 50222, run by Nanosyn); type: binding; conditions: cell‐free TR‐FRET assay, duplicate, errors are SEMs
T2 construct: purchased BPS Bioscience (assay run by Nanosyn) 50222
T2 sequence (P10415 whole entry): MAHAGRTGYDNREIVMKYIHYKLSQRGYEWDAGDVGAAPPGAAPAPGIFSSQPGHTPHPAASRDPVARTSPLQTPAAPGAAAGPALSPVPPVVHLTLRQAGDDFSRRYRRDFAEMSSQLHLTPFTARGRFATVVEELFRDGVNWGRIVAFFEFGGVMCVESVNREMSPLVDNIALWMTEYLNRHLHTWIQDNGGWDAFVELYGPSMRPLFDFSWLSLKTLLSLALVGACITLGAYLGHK

MV4;11 cells [1] = assay: alamarBlue cell metabolism/viability assay, MV4;11; type: cell-based, human; conditions: for IC50: at least triplicate, errors are SEMs
Source text: (§1) As described previously, MOLM14 and MV4;11 cell lines (both human AML cell lines harboring both mixed‐lineage‐leukemia (KMT2A) rearrangement and FLT3‐ITD mutations) were obtained from DSMZ (Branschweig, DEU) and ATCC (Manassas, VA), respectively (Goodis et al. [2024]; Moses et al. [2021]); MV4;11 BCL‐2 over‐expressing (OE) cells were generated via lentiviral transduction as described previously (Empty Vector AddGene #227688; BLC‐2 OE AddGene #227690) (Goodis et al. [2024]).
(§2) Cell lines were cultured in RPMI 1640 media (Cellgro, # MDT‐10‐040‐CV) containing 10% fetal bovine serum (Gemini BioProducts #100‐106) and passaged twice per week to maintain cultures in log‐phase‐growth. Upon receipt or derivation, cell lines were expanded and multiple aliquots cryopreserved in DMSO‐containing medium in the vapor phase of liquid nitrogen. Cells were genetically authenticated and confirmed to be mycoplasma‐negative before cryopreservation. Cells from a given cryopreserved aliquot were cultured for no more than 3–4 months.
(§3) AnnV/7AAD assays were assessed by flow cytometry and analyzed using FlowLogic software v8.7.
(§4) Our dual inhibitors were next evaluated in an alamarBlue^TM cell metabolism/viability assay against 3 human AML cell lines: MOLM14, MV4;11, and MV4;11 BCL‐2 overexpressing (OE). […] However, pleasingly, several of our top compounds based on the cell‐free assay results also performed well in the AML cell‐based metabolism/viability assays.

[2] = system: MV4;11 BCL‐2 over‐expressing (OE) cells; assay: alamarBlue cell metabolism/viability assay, MV4;11 BCL‐2 OE; type: cell-based; conditions: Homo sapiens
Source text: as §1, §2, §3, §4

MOLM14 cells = assay: alamarBlue cell metabolism/viability assay, MOLM14; type: cell-based; conditions: Homo sapiens
Source text: as §1, §2, §3, §4

MV4;11 cells [3] = assay: Annexin V/7AAD apoptosis/death assay by flow cytometry; type: cell-based, human; conditions: 200 nM; for viability at 0.2 µM: Homo sapiens, 48 h, MV4;11, in Figure 2, read-out: viable cells (AnnV‐/7AAD‐), lower left quadrant
Description: as §3
Figure 2 Apoptotic cell death of MV4;11 AML cells. […] As a negative control, an equi‐volume of DMSO‐treated sample was also assessed. Flow cytometric dot plots of 200 nM‐treated MV4;11 cells stained with Annexin‐V and 7AAD depict the gating strategy used to delineate viable cells (AnnV‐/7AAD‐), early apoptotic cells (AnnV+/7AAD‐), and late apoptotic cells (AnnV+/7AAD +).

HDAC6 = molecular target: T3, HDAC6 (Homo sapiens, UniProt Q9UBN7); assay: HDAC6 fluorogenic assay (BPS Bioscience 50076, run by Nanosyn); conditions: for selectivity for HDAC6 over HDAC1 (HDAC6/1 selectivity): ratio of IC50 values
T3 sequence (Q9UBN7 1-1215): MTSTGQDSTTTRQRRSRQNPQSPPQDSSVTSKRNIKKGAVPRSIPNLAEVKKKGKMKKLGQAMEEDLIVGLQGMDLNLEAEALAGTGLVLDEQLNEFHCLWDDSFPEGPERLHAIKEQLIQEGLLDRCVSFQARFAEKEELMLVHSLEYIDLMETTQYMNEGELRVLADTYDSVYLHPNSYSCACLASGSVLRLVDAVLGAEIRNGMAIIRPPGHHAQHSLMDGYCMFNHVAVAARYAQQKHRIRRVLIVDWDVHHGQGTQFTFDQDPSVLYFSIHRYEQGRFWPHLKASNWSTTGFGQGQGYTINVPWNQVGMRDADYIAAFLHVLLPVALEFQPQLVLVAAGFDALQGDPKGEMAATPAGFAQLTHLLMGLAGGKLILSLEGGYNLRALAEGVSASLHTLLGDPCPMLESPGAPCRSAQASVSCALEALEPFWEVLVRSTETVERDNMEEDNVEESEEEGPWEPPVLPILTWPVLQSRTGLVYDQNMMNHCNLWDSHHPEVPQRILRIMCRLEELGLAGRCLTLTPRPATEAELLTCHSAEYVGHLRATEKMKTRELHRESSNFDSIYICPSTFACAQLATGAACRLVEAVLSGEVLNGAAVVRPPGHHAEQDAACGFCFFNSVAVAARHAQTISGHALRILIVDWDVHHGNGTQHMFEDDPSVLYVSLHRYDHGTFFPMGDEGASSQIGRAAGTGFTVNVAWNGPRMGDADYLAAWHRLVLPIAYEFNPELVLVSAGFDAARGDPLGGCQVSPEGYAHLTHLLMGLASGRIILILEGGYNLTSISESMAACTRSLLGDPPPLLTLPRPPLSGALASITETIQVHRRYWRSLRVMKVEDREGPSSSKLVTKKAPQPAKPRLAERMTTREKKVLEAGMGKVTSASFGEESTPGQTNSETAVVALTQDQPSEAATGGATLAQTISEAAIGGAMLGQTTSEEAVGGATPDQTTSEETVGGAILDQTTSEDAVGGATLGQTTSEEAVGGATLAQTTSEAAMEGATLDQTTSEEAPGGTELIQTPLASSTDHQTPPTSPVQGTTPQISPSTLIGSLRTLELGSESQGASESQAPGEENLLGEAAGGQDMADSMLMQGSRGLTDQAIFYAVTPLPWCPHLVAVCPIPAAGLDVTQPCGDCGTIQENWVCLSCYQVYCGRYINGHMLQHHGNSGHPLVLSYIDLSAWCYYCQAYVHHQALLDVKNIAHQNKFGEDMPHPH

[4] = Homo sapiens, MV4-11, alamarBlue
[5] = MV4-11, alamarBlue, at least triplicate, errors are SEMs, read-out: IC50 MV4;11 BCL‐2 OE
[6] = MOLM-14, at least triplicate, errors are SEMs, read-out: IC50 MOLM‐14

SMILES: CC1(C)CCC(CN2CCN(c3ccc(C(=O)NS(=O)(=O)c4ccc(NCCNC(=O)c5ccc(C(=O)NO)cc5)c([N+](=O)[O-])c4)c(Oc4cnc5[nH]ccc5c4)c3)CC2)=C(c2ccc(Cl)cc2)C1 [SF‐8‐083, N ^1‐(2‐((4‐(N‐(2‐((1H‐pyrrolo[2,3‐b]pyridin‐5‐yl)oxy)‐4‐(4‐((4′‐chloro‐5,5‐dimethyl‐3,4,5,6‐tetrahydro‐[1,1′‐biphenyl]‐2‐yl)methyl)piperazin‐1‐yl)benzoyl)sulfamoyl)‐2‐nitrophenyl)amino)ethyl)‐N ^4‐hydroxyterephthalamide]
- IC50 (HDAC1): 11600 ± 1760 nM
- IC50 (MV4;11 cells [1]; [4]): > 10000 nM
- IC50 (HDAC6): 418 ± 34 nM
- selectivity for HDAC6 over HDAC1 (HDAC6/1 selectivity) (HDAC6): ~ 30 fold

SMILES: CC1(C)CCC(CN2CCN(c3ccc(C(=O)NS(=O)(=O)c4ccc(NCC5CCOCC5)c([N+](=O)[O-])c4)c(Oc4cnc5[nH]ccc5c4)c3)CC2)=C(c2ccc(Cl)cc2)C1 [Venetoclax, venetoclax, reference compound]
- IC50 (HDAC1): > 30000 nM
- IC50 (MV4;11 cells [1]; [4]): 82 nM
- IC50 (MV4;11 cells [1]; alamarBlue): 82.8 ± 16.7 nM
- IC50 [2, 5]: 1020 ± 177 nM
- IC50 ([2]; MV4-11, alamarBlue, read-out: IC50 MV4;11 OE BCL‐2 cell line): 1000 nM
- IC50 (MOLM14 cells; [6]): 1720 ± 59 nM
- IC50 (MOLM14 cells; MOLM-14, read-out: IC50 MOLM14 cells): 1700 nM
- decrease in % AnnV‐/7AAD‐ (viable) cells (MV4;11 cells [3]; MV4;11): ~ 50%
- viability at 0.2 µM (MV4;11 cells [3]): 49.4%
- IC50 (HDAC6): > 30000 nM

SMILES: CC1(C)CCC(CN2CCN(c3ccc(C(=O)NS(=O)(=O)c4ccc(NCCNC(=O)c5ccc(/C=C/C(=O)NO)cc5)c([N+](=O)[O-])c4)c(Oc4cnc5[nH]ccc5c4)c3)CC2)=C(c2ccc(Cl)cc2)C1 [SF‐8‐062, (E)‐2‐((1H‐pyrrolo[2,3‐b]pyridin‐5‐yl)oxy)‐4‐(4‐((4′‐chloro‐5,5‐dimethyl‐3,4,5,6‐tetrahydro‐[1,1′‐biphenyl]‐2‐yl)methyl)piperazin‐1‐yl)‐N‐((4‐((2‐(4‐(3‐(hydroxyamino)‐3‐oxoprop‐1‐en‐1‐yl)benzamido)ethyl)amino)‐3‐nitrophenyl)sulfonyl)benzamide]
- IC50 (HDAC1): 6140 ± 1240 nM
- IC50 (MV4;11 cells [1]; [4]): > 10000 nM
- selectivity for HDAC6 over HDAC1 (HDAC6/1 selectivity) (HDAC6): about 20 fold

Continued, in another order:

- IC50 (HDAC1): > 30000 nM
- IC50 (BCL‐2): < 1 nM and 0.617 nM
- IC50 (MV4;11 cells [1]; [4]): 285 ± 81 nM
- IC50 [2, 5]: 2450 ± 96 nM
- IC50 (MOLM14 cells; [6]): > 10000 nM
- IC50 (HDAC6): 368 ± 85 nM
- selectivity for HDAC6 over HDAC1 (HDAC6/1 selectivity) (HDAC6): > 80 fold
SMILES: CC1(C)CCC(CN2CCN(c3ccc(C(=O)NS(=O)(=O)c4ccc(NCc5ccc(C(=O)NO)cc5)c([N+](=O)[O-])c4)c(Oc4cnc5[nH]ccc5c4)c3)CC2)=C(c2ccc(Cl)cc2)C1 [SF‐8‐038, 2‐((1H‐pyrrolo[2,3‐b]pyridin‐5‐yl)oxy)‐4‐(4‐((4′‐chloro‐5,5‐dimethyl‐3,4,5,6‐tetrahydro‐[1,1′‐biphenyl]‐2‐yl)methyl)piperazin‐1‐yl)‐N‐((4‐((4‐(hydroxycarbamoyl)benzyl)amino)‐3‐nitrophenyl)sulfonyl)benzamide]
- fold less active than venetoclax, MV4;11 cell metabolism/viability (MV4;11 cells [1]; IC50 compared with venetoclax): ~ 3 fold
- induction of apoptosis compared with venetoclax (MV4;11 cells [3]; MV4;11): somewhat less potent
- viability at 0.2 µM (MV4;11 cells [3]): 58.5%

- IC50 (HDAC1): 463 ± 60 nM
- IC50 (MV4;11 cells [1]; [4]): > 10000 nM
- IC50 (HDAC6): 149 ± 20 nM
- selectivity for HDAC6 over HDAC1 (HDAC6/1 selectivity) (HDAC6): ~ 3 fold
SMILES: CC1(C)CCC(CN2CCN(c3ccc(C(=O)NS(=O)(=O)c4ccc(NCCNc5ncc(C(=O)NO)cn5)c([N+](=O)[O-])c4)c(Oc4cnc5[nH]ccc5c4)c3)CC2)=C(c2ccc(Cl)cc2)C1 [BD‐4‐208, 2‐((2‐((4‐(N‐(2‐((1H‐pyrrolo[2,3‐b]pyridin‐5‐yl)oxy)‐4‐(4‐((4′‐chloro‐5,5‐dimethyl‐3,4,5,6‐tetrahydro‐[1,1′‐biphenyl]‐2‐yl)methyl)piperazin‐1‐yl)benzoyl)sulfamoyl)‐2‐nitrophenyl)amino)ethyl)amino)‐N‐hydroxypyrimidine‐5‐carboxamide]
